11 molecules from PubChem BioAssay (NCI) can be followed below.

Test systems include KM12 colon; EKVX NSCLC; HT29 colon; HOP-62 NSCLC; TK-10 renal; SK-OV-3 ovarian; SN12C renal; K-562 leukemia; UACC-62 melanoma; RPMI-8226 leukemia.
Holding throughout (assay): NCI tumour cell line growth inhibition, 48 h

SMILES strings stand for the structures.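 Each compound was tested at five concentrations against cells in 96-well plates for 48 hours. GI50 = concentration required for 50% inhibition of growth. TGI denotes the concentration required for complete inhibition of growth.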 Some results are limits rather than exact numbers.

`CCOP(=O)(CCP(=O)(OCC)OCC)OCC.C[CH2][Sn]([Cl])([Cl])[CH2]C`: the GI50 with KM12 colon was over 100 µM; in the assay with EKVX NSCLC it was over 100 µM; in the assay on HT29 colon, 62.7 µM; in the assay on HOP-62 NSCLC, over 91.3 µM; in the assay on TK-10 renal, 30.6 µM; in the assay with SK-OV-3 ovarian, 99.3 µM. The GI50 was 48.1 µM in the assay with SN12C renal, 27.4 µM with K-562 leukemia, 34 µM in the assay with UACC-62 melanoma and 22.7 µM with RPMI-8226 leukemia. The TGI was over 100 µM with KM12 colon; over 100 µM in the assay with EKVX NSCLC; over 93.6 µM in the assay with HT29 colon; over 100 µM in the assay on HOP-62 NSCLC; 52 µM in the assay on TK-10 renal; over 100 µM in the assay on SK-OV-3 ovarian. The TGI is over 69.8 µM with SN12C renal, over 100 µM in the assay with K-562 leukemia, 55 µM in the assay with UACC-62 melanoma and 67.2 µM in the assay with RPMI-8226 leukemia.

With `O=C(c1cc2ccccc2[nH]1)C(O)(c1cc2ccccc2[nH]1)c1cc2ccccc2[nH]1`, the TGI in the assay on KM12 colon, in the assay on EKVX NSCLC, with HT29 colon, with HOP-62 NSCLC, in the assay on TK-10 renal and in the assay on SK-OV-3 ovarian was over 246 µM in each case. The TGI in the assay on SN12C renal, with K-562 leukemia, in the assay with UACC-62 melanoma and in the assay on RPMI-8226 leukemia was over 246 µM each time.

Turning to `CC(=O)NNc1nc(C)c(C(=O)NNC(=O)C(=O)Nc2ccc(C)c(C)c2)s1`, the TGI in the assay on KM12 colon, with EKVX NSCLC, in the assay with HT29 colon, in the assay with HOP-62 NSCLC, with TK-10 renal and in the assay with SK-OV-3 ovarian was over 100 µM each time. In addition, the TGI in the assay on SN12C renal, with K-562 leukemia, in the assay with UACC-62 melanoma and in the assay on RPMI-8226 leukemia was over 100 µM each time.

Turning to `O=c1[nH]c(=S)[nH]c2c1sc(=S)n2-c1ccccc1`, the TGI in the assay with KM12 colon, in the assay with EKVX NSCLC, in the assay on HT29 colon, with HOP-62 NSCLC, in the assay with TK-10 renal and in the assay on SK-OV-3 ovarian was over 100 µM in each case. Also, the TGI with SN12C renal, in the assay on K-562 leukemia, in the assay on UACC-62 melanoma and in the assay on RPMI-8226 leukemia was over 100 µM each time.

For the molecule `COc1cc(CNC(=O)/C=C/C=C/c2ccc3c(c2)OCO3)ccc1OCc1cn(-c2ccc(Cl)c(Cl)c2)nn1`, the GI50 in the assay on KM12 colon was 2.41 µM; in the assay with EKVX NSCLC it was 2.95 µM; with HT29 colon it was 2.49 µM; in the assay on HOP-62 NSCLC it was 1.79 µM; with TK-10 renal it was 2.31 µM; in the assay with SK-OV-3 ovarian, 2.54 µM. Moreover, the GI50 in the assay with SN12C renal was 1.82 µM; with K-562 leukemia, 0.509 µM; in the assay with UACC-62 melanoma, 1.26 µM; with RPMI-8226 leukemia it was 2.3 µM. The TGI worked out at 7.25 µM in the assay on KM12 colon; 13.4 µM with EKVX NSCLC; 8.18 µM in the assay on HT29 colon; 3.86 µM with HOP-62 NSCLC; 7.65 µM in the assay with TK-10 renal; 6.57 µM in the assay with SK-OV-3 ovarian. The TGI was determined as 4.93 µM in the assay with SN12C renal, 3.78 µM in the assay on K-562 leukemia, 2.65 µM with UACC-62 melanoma and 8.36 µM in the assay on RPMI-8226 leukemia.

Consider `COC(=O)CCC(NC(=S)N/N=C(\C)c1ccccn1)C(=O)OC` (stereo not given), for which the TGI with KM12 colon, with EKVX NSCLC, in the assay with HT29 colon, in the assay on HOP-62 NSCLC, in the assay on TK-10 renal and in the assay on SK-OV-3 ovarian was over 100 µM throughout. For the same molecule, the TGI with SN12C renal, in the assay on K-562 leukemia, with UACC-62 melanoma and in the assay on RPMI-8226 leukemia was over 100 µM each time.

`Cc1c2ccccc2c(C)c2c3c(ccc12)C(=O)C=CC3=O`: the TGI was over 67.6 µM in the assay on KM12 colon; over 85 µM in the assay with EKVX NSCLC; over 65.8 µM in the assay on HT29 colon; over 90.9 µM in the assay on HOP-62 NSCLC; 36.7 µM in the assay with TK-10 renal; over 100 µM with SK-OV-3 ovarian. For the same molecule, the TGI was over 69.1 µM in the assay on SN12C renal, 50.9 µM in the assay with K-562 leukemia, over 100 µM in the assay on UACC-62 melanoma and 60.6 µM in the assay with RPMI-8226 leukemia.

For the molecule `CCCNc1nc(N(C)O)nc(N(C)O)n1`, the GI50 with KM12 colon was 3.09 µM; in the assay with EKVX NSCLC, 2.04 µM; with HT29 colon, 4.53 µM; in the assay on HOP-62 NSCLC, 1.82 µM; in the assay with TK-10 renal, 1.44 µM; in the assay with SK-OV-3 ovarian it was 3.46 µM. Besides, the GI50 was 4.27 µM in the assay with SN12C renal, 2.24 µM in the assay on K-562 leukemia, 3.09 µM with UACC-62 melanoma and 0.689 µM in the assay with RPMI-8226 leukemia. The TGI with KM12 colon is over 100 µM; with EKVX NSCLC, over 100 µM; in the assay on HT29 colon, over 100 µM; in the assay with HOP-62 NSCLC, 97.6 µM; in the assay on TK-10 renal, over 100 µM; with SK-OV-3 ovarian, over 100 µM. Moreover, the TGI with SN12C renal is over 100 µM; in the assay with K-562 leukemia, over 100 µM; with UACC-62 melanoma, over 56.9 µM; in the assay with RPMI-8226 leukemia, 4.46 µM.

With `COc1ccc(CN2c3ccccc3Sc3ccccc32)cc1F`, the GI50 in the assay on KM12 colon is 0.471 µM; in the assay on EKVX NSCLC, 0.78 µM; in the assay on HT29 colon, 0.352 µM; in the assay with HOP-62 NSCLC, 4.34 µM; with TK-10 renal, over 100 µM; in the assay on SK-OV-3 ovarian, 0.559 µM. The GI50 with SN12C renal was 1.13 µM; with K-562 leukemia, 0.383 µM; in the assay on UACC-62 melanoma, 0.516 µM; in the assay with RPMI-8226 leukemia, 0.483 µM. For the same molecule, the TGI with KM12 colon, in the assay on EKVX NSCLC, with HT29 colon, in the assay with HOP-62 NSCLC, with TK-10 renal and in the assay with SK-OV-3 ovarian was over 100 µM each time. Besides, the TGI with SN12C renal, in the assay on K-562 leukemia, with UACC-62 melanoma and in the assay on RPMI-8226 leukemia was over 100 µM each time.

For `CC1C2Cc3ccc(O)cc3C1(C)CCN2C` (stereo not given), the TGI with KM12 colon, in the assay with EKVX NSCLC, in the assay on HT29 colon, in the assay on HOP-62 NSCLC, in the assay on TK-10 renal and in the assay with SK-OV-3 ovarian was over 100 µM each time. Besides, the TGI in the assay on SN12C renal, in the assay with K-562 leukemia, in the assay with UACC-62 melanoma and in the assay with RPMI-8226 leukemia was over 100 µM in each case.

Take `C=C1C(=O)OC2CCCCC3OC3C12` (stereo not given): the TGI with KM12 colon was 31.8 µM; in the assay with EKVX NSCLC it was 34.6 µM; in the assay with HT29 colon it was 32.2 µM; in the assay with HOP-62 NSCLC, 41.3 µM; with TK-10 renal, 26.7 µM; with SK-OV-3 ovarian, 32 µM. Moreover, the TGI was 21.3 µM in the assay on SN12C renal, 70.5 µM in the assay with K-562 leukemia, 13.7 µM in the assay on UACC-62 melanoma and 27.4 µM in the assay on RPMI-8226 leukemia.
